In patent publication US20240382451A1, “ORGANONITRO AND SULFOXYALKYL ORGANONITRO COMPOUNDS FOR USE IN TREATING MEDICAL DISORDERS” (EpicentRx, Inc., priority 2021, published 2024):

What was measured:
3×Tg-AD mice [1] = assay: Morris water maze test in aged triple transgenic Alzheimer's disease mouse model; format: in vivo; conditions: 2 mg/kg intraperitoneal once weekly for 3 months
Experimental: (§1) The neuroprotective effects of RRx-001 administration on Alzheimer's Disease (AD), which has been linked to aberrant NLR family pyrin domain containing 3 (NLRP3) activation, were evaluated via intraperitoneal injection once weekly for 3 months on aged (18-21 months old) homozygous triple transgenic AD mouse model (3×Tg-AD, Jackson Labs). 3×Tg mice received either 2 mg/kg RRx-001 (n=3) or vehicle (n=3), and were evaluated against control non-transgenic mice (NonTg, Jackson Labs) that were untreated (n=3).
Five days after the last treatment, the mice were tested using a Morris water maze test. The next week, the mice were exposed to an elevated maze test. The latency to reach the exact hidden platform location on the Morris water maze test (FIG. 1A) and the number of crossings of the platform target quadrant (FIG. 1B) were recorded.

C57BL/6 mice = assay: Dextran sulfate sodium (DSS) induced colitis in mice; format: in vivo, mouse; conditions: 2% or 4% DSS for 9 days, 5 or 10 mg/kg
Text: Colitis was induced in C57BL/6 mice with 2% or 4% dextran sulfate sodium (DSS; 40 kDa) dissolved in drinking water given ad libitum for 9 days. Control mice were given filtered water. FIG. 6A depicts changes in mice body weight over a 9-day period for each of the three groups: (i) control (filtered water), (ii) 2% DSS, and (iii) 4% DSS. FIG. 6B depicts colon length of mice in each group after the 9-day period.
FIGS. 7A and 7B depict changes in mice body weight over a 9-day period for each of the six groups: (i) 2% DSS+vehicle, (ii) 2% DSS+RRx-001 (5 mg/kg), and (iii) 2% DSS+RRx-001 (10 mg/kg) in FIG. 7A; and (iv) 4% DSS+vehicle, (v) 4% DSS+RRx-001 (5 mg/kg), and (vi) 4% DSS+RRx-001 (10 mg/kg) in FIG. 7B. While the 2% or 4% DSS was given ad libitum for 9 days as described above, vehicle, 5 mg/kg RRx-001, or 10 mg/kg RRx-001 was given as intravascular injections of pre-mixed blood formulations every other day during the 9-day period. […] FIGS. 7C and 7D depict colon length of mice in each of the six groups. […] FIGS. 7E and 7F depict serum IL-1β levels in mice in each of the six groups. […] FIGS. 7G and 7H depict colon homogenate IL-1β levels in mice in each of the six groups. FIGS. 7I and 7J depict colon homogenate IL-1β levels relative to the average IL-1β level of the control (i.e., DSS+vehicle) in mice in each of the six groups.
FIGS. 8A and 8B depict the changes in mice body weight over the 9-day period for each of the six groups: (i) 2% DSS+vehicle. (ii) 2% DSS+RRx-001 (5 mg/kg), and (iii) 2% DSS+RRx-001 (10 mg/kg) in FIG. 8A; and (iv) 4% DSS+vehicle, (v) 4% DSS+RRx-001 (5 mg/kg), and (vi) 4% DSS+RRx-001 (10 mg/kg) in FIG. 8B. While the 2% or 4% DSS was given ad libitum for 9 days as described above, vehicle, 5 mg/kg RRx-001, or 10 mg/kg RRx-001 was given as intraperitoneal injections every other day during the 9-day period. […] FIGS. 8C and 8D depict colon length of mice in each of the six groups. […] FIGS. 8E and 8F depict serum IL-1β levels in mice in each of the six groups. […] FIGS. 8G and 8H depict colon homogenate IL-1β levels in mice in each of the six groups.

3×Tg-AD mice [2] = assay: Oxidative stress markers and amyloid plaque density in aged 3×Tg-AD mice; format: in vivo, mouse; conditions: 2 mg/kg intraperitoneal once weekly for 3 months
Experimental: as §1

[3] = test system: bone marrow derived macrophages (BMDMs); assay: LPS-primed bone marrow derived macrophages: cytokine expression, IL-1β release, cytosolic Ca2+; format: cell-based; conditions: BMDMs primed with LPS 50 ng/mL for 30 minutes, then 0.5 μM RRx-001 for 4 hours
Experimental: Bone marrow derived macrophages (BMDMs) were primed with LPS (50 ng/mL) for 30 minutes before being treated with RRx-001 (0.5 μM) for 4 hours. FIG. 4A depicts the expression levels of IFN-γ, IL-12, TNF-α, and IL-1β from the three groups: (i) control (not primed with LPS), (ii) LPS+vehicle (primed with LPS but not treated with RRx-001), (iii) and LPS+RRx-001 (primed with LPS and treated with RRx-001). FIG. 4B depicts IL-1β release over time from the three groups. FIG. 4C depicts cytosolic Ca^2+ levels over time for the three groups.

[4] = test system: bone marrow derived macrophages (BMDMs); assay: DSS-primed bone marrow derived macrophages: IL-1β release; format: cell-based; conditions: BMDMs primed with DSS, 0.5 μM or 1.0 μM RRx-001
Experimental: FIG. 5 depicts IL-1β release from the four groups of bone marrow derived macrophages (BMDMs): (i) control (not primed with DSS). (ii) DSS+vehicle (primed with DS but not treated with RRx-001), (iii) DSS+RRx-001 (0.5 μM; primed with DSS and treated with 0.5 μM RRx-001), and (iv) DSS+RRx-001 (1.0 μM; primed with DSS and treated with 1.0 μM RRx-001).

[5] = intraperitoneal injections every other day
[6] = intravascular injections of pre-mixed blood formulations every other day

`O=C(CBr)N1CC([N+](=O)[O-])([N+](=O)[O-])C1` [RRx-001, 2-bromo-1-(3,3-dinitroazetidin-1-yl)ethanone] was tested, and the “spatial learning tasks (trend in latency across trials)” value (3×Tg-AD mice [1]) was “improvement”, the “latency to locate the platform on the Morris water maze test” value (3×Tg-AD mice [1]; vs vehicle) was “significantly reduce” and the “DSS-induced expression of colon homogenate IL-1β” value (C57BL/6 mice; [5]) was “reduces”. For the same molecule, the “DSS-induced expression of serum IL-1β” value (C57BL/6 mice; [5]) was “reduces”, the “body weight loss due to DSS induced colitis” value (C57BL/6 mice; [5]) was “significantly mitigates” and the “colon length reduction due to DSS induced colitis” value (C57BL/6 mice; [5]) was “mitigates”. The “DSS-induced expression of colon homogenate IL-1β” value (C57BL/6 mice; [6]) was “reduces”, the “DSS-induced expression of serum IL-1β” value (C57BL/6 mice; [6]) was “reduces” and the “body weight loss due to DSS induced colitis” value (C57BL/6 mice; [6]) was “significantly mitigates”. For the same molecule, the “colon length reduction due to DSS induced colitis” value (C57BL/6 mice; [6]) was “mitigates”, the amyloid plaque density (3×Tg-AD mice [2]) was “decrease” and the “lipid peroxidation (thiobarbituric acid-reactive substance (TBAR) levels)” value (3×Tg-AD mice [2]) was “decrease”. The “reduced glutathione (GSH) compared to glutathione disulfide (GSSG)” value (3×Tg-AD mice [2]) was “significant increase”, the “calcium accumulation in activated macrophages (cytosolic Ca2+ levels)” value [3] was “prevents calcium accumulation” and the “inflammation-driven expression of certain cytokines such as IL-1β” value [3] was “significantly reduces”. The “inflammatory effect of DSS (IL-1β release)” value [4] was “significantly reduces”.
